Experimental data: BindingDB's records for patent US20250127800 (Signet Therapeutics, 2025)

Each molecule was assayed against Focal adhesion kinase 1 (Homo sapiens, UniProt Q05397) (assay: In Vitro Enzymatic Inhibitory Activity Assay).
Focal adhesion kinase 1, sequence (Q05397 whole entry): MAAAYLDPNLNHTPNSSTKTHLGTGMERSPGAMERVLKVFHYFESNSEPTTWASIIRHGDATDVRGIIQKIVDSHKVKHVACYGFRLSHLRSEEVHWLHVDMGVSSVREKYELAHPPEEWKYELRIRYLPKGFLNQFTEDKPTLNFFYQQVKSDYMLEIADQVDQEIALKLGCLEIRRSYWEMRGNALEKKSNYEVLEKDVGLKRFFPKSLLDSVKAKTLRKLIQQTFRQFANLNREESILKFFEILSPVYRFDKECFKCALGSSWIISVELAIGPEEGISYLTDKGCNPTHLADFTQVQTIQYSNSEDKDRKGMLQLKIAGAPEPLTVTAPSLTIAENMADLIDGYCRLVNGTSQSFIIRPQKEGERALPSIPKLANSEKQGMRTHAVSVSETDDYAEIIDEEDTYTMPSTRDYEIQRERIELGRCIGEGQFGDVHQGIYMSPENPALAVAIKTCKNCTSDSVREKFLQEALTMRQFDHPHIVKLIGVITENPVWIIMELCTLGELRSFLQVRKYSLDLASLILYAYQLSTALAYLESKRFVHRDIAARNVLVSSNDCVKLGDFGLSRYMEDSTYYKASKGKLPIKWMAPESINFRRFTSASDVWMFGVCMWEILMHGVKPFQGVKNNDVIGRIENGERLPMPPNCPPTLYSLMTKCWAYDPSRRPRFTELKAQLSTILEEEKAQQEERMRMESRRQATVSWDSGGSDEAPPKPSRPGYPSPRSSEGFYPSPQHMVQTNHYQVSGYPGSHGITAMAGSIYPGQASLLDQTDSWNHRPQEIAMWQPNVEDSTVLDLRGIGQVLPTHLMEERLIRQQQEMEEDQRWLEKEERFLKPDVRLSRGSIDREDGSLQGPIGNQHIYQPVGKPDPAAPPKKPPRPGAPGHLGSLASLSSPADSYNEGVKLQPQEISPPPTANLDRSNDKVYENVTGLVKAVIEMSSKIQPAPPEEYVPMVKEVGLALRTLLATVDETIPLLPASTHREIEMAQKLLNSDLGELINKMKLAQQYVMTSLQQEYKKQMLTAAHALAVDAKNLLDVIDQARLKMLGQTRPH

Structure (SMILES) | IC50 [nM]
C=CC(=O)NC1CCC(CNC(=O)c2ccc(Nc3ncc(C(F)(F)F)c(NCc4nccnc4N(C)S(C)(=O)=O)n3)c(OC)c2)CC1 (stereo unspecified) [US20250127800, Example 5] | 0.9
C=CC(=O)N1CCCC(NC(=O)c2ccc(Nc3ncc(C(F)(F)F)c(NCc4nccnc4N(C)S(C)(=O)=O)n3)c(OC)c2)C1 (stereo unspecified) [US20250127800, Example 3] | 1.59
C=CC(=O)N1CCC(NC(=O)c2ccc(Nc3ncc(C(F)(F)F)c(NCc4nccnc4N(C)S(C)(=O)=O)n3)c(OC)c2)C1 (stereo unspecified) [US20250127800, Example 2] | 1.18

Results, then the molecule that gave them:

IC50 [nM] | Structure (SMILES)
2.93 | C=C(C)C(=O)N1CCCC(c2cccc(NCc3ccc(Nc4ncc(C(F)(F)F)c(Nc5ccccc5C(=O)NC)n4)cc3)c2)C1 (stereo unspecified) [US20250127800, Example 24]
7.84 | C=CC(=O)N1CCCC(c2cccc(NCc3ccc(Nc4ncc(Cl)c(Nc5ccccc5C(=O)NC)n4)cc3)c2)C1 (stereo unspecified) [US20250127800, Example 15]
3.41 | C=CC(=O)N1CCCC(c2cccc(NCc3ccc(Nc4ncc(C(F)(F)F)c(Nc5ccccc5C(=O)NC)n4)c(OC)c3)c2)C1 (stereo unspecified) [US20250127800, Example 12]
